How the values were obtained:
Assay type in all cases: in vivo
[1] = tested on: ryegrass, Italian (Italian ryegrass, Lolium multiflorum); assay: Test A preemergence; settings: Lolium multiflorum, pre-emergence, 240 h, 0 to 100 scale where 0 is no effect and 100 is complete control, read-out: Ryegrass, Italian plant response rating
In short: (§1)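 Seeded soil received test chemicals as a preemergence directed spray, and seedlings at one to two leaves, 2–10 cm tall, received them postemergence, in a non-phytotoxic, surfactant-containing solvent mixture. Pots were held in a greenhouse for approximately 10 d, then rated for injury from 0, no effect, to 100, complete control.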

[2] = tested on: giant foxtail (Setaria faberii); assay: Test A preemergence; settings: Setaria faberi, pre-emergence, 240 h, 0 to 100 scale where 0 is no effect and 100 is complete control, read-out: Foxtail, Giant plant response rating
In short: as §1

[3] = tested on: barnyardgrass (Echinochloa crus-galli); assay: Test A preemergence; settings: Echinochloa crus-galli, pre-emergence, 240 h, 0 to 100 scale where 0 is no effect and 100 is complete control, read-out: Barnyardgrass plant response rating
In short: as §1

[4] = tested on: pigweed (Amaranthus retroflexus); assay: Test A preemergence; settings: Amaranthus retroflexus, pre-emergence, 240 h, 0 to 100 scale where 0 is no effect and 100 is complete control, read-out: Pigweed plant response rating
[5] = tested on: ragweed (common ragweed, Ambrosia elatior); assay: Test A preemergence; settings: Ambrosia artemisiifolia, pre-emergence, 240 h, 0 to 100 scale where 0 is no effect and 100 is complete control, read-out: Ragweed plant response rating
In short: as §1

Kochia (Kochia scoparia) [6] = assay: Test A preemergence; settings: Bassia scoparia, pre-emergence, 240 h, 0 to 100 scale where 0 is no effect and 100 is complete control, read-out: Kochia plant response rating
In short: as §1

rice (Oryra sativa) = assay: Test B flooded paddy test; settings: Oryza sativa, 250 g ai/ha, Flood; 0 to 100 scale where 0 is no effect and 100 is complete control; read-out: Rice plant response rating
In short: (§2)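 Plants at 2-leaf stage flooded to 3 cm above soil, with compounds applied directly to paddy water and that depth maintained. Plants kept in greenhouse 13–15 d. Visual rating versus controls on a 0 (no effect) to 100 (complete control) scale.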

[7] = tested on: barnyardgrass (Echinochloa crus-galli); assay: Test B flooded paddy test; settings: Echinochloa crus-galli, 250 g ai/ha, Flood; 0 to 100 scale where 0 is no effect and 100 is complete control; read-out: Barnyardgrass plant response rating
In short: as §2

[8] = tested on: ducksalad (Heteranthera limosa); assay: Test B flooded paddy test; settings: Heteranthera limosa, 250 g ai/ha, Flood; 0 to 100 scale where 0 is no effect and 100 is complete control; read-out: Ducksalad plant response rating
In short: as §2

[9] = tested on: sedge, umbrella (small-flower umbrella sedge, Cyperus difformis); assay: Test B flooded paddy test; settings: Cyperus difformis, 250 g ai/ha, Flood; 0 to 100 scale where 0 is no effect and 100 is complete control; read-out: Sedge, Umbrella plant response rating
In short: as §2

[10] = tested on: wheat (Triticum aestivum); assay: Test A postemergence; settings: Triticum aestivum, post-emergence, 240 h, read-out: Wheat plant response rating (0 to 100 scale)
In short: as §1

[11] = tested on: ryegrass, Italian (Italian ryegrass, Lolium multiflorum); assay: Test A postemergence; settings: Lolium multiflorum, post-emergence, 240 h, read-out: Ryegrass, Italian plant response rating (0 to 100 scale)
In short: as §1

[12] = tested on: giant foxtail (Setaria faberii); assay: Test A postemergence; settings: Setaria faberi, post-emergence, 240 h, read-out: Foxtail, Giant plant response rating (0 to 100 scale)
In short: as §1

[13] = tested on: barnyardgrass (Echinochloa crus-galli); assay: Test A postemergence; settings: Echinochloa crus-galli, post-emergence, 240 h, read-out: Barnyardgrass plant response rating (0 to 100 scale)
In short: as §1

[14] = tested on: pigweed (Amaranthus retroflexus); assay: Test A postemergence; settings: Amaranthus retroflexus, post-emergence, 240 h, read-out: Pigweed plant response rating (0 to 100 scale)
In short: as §1

corn (Zea mays) = assay: Test A postemergence; settings: Zea mays, post-emergence, 240 h, read-out: Corn plant response rating (0 to 100 scale)
In short: as §1

[15] = tested on: Galium (catchweed bedstraw, Galium aparine); assay: Test A postemergence; settings: Galium, post-emergence, 240 h, read-out: Galium plant response rating (0 to 100 scale)
In short: as §1

[16] = tested on: ragweed (common ragweed, Ambrosia elatior); assay: Test A postemergence; settings: Ambrosia artemisiifolia, post-emergence, 240 h, read-out: Ragweed plant response rating (0 to 100 scale)
In short: as §1

Kochia (Kochia scoparia) [17] = assay: Test A postemergence; settings: Bassia scoparia, post-emergence, 240 h, read-out: Kochia plant response rating (0 to 100 scale)
In short: as §1

[18] = tested on: blackgrass (Alopecurus myosuroides); assay: Test A postemergence; settings: Alopecurus myosuroides, post-emergence, 240 h, read-out: Blackgrass plant response rating (0 to 100 scale)
In short: as §1

[19] = 125 g ai/ha, preemergence, visual injury rating, approximately 10 d
[20] = 125 g ai/ha, postemergence, visual injury vs untreated controls after approx. 10 d, 0 = no effect, 100 = complete control
[21] = Postemergence, 31 g ai/ha, 0 is no effect, 100 is complete control

## CN1C[C@H](c2ccc(C#N)c(F)c2)[C@@H](C(=O)Nc2cccc(F)c2F)C1=O [Compound 1192]
[1]; 31 g ai/ha, Preemergence
  pest or weed control at 31 g/ha: 0%
[1]; [19]
  pest or weed control at 125 g/ha: 0%
[2]; 31 g ai/ha, Preemergence
  pest or weed control at 31 g/ha: 30%
[2]; [19]
  pest or weed control at 125 g/ha: 100%
[3]; 31 g ai/ha, Preemergence
  pest or weed control at 31 g/ha: 70%
[3]; [19]
  pest or weed control at 125 g/ha: 100%
[4]; 31 g ai/ha, Preemergence
  pest or weed control at 31 g/ha: 0%
[4]; [19]
  pest or weed control at 125 g/ha: 30%
[5]; 31 g ai/ha, Preemergence
  pest or weed control at 31 g/ha: 0%
[5]; [19]
  pest or weed control at 125 g/ha: 0%
Kochia (Kochia scoparia) [6]; 31 g ai/ha, Preemergence
  pest or weed control at 31 g/ha: 0%
Kochia (Kochia scoparia) [6]; [19]
  pest or weed control at 125 g/ha: 50%
Rice (Oryra sativa)
  pest or weed control at 250 g/ha: 30%
[7]
  pest or weed control at 250 g/ha: 100%
[8]
  pest or weed control at 250 g/ha: 95%
[9]
  pest or weed control at 250 g/ha: 30%
[10]; [20]
  plant injury at 125 g/ha: 0%
[10]; [21]
  plant injury at 31 g/ha: 0%
[11]; [20]
  pest or weed control at 125 g/ha: 0%
[11]; [21]
  pest or weed control at 31 g/ha: 0%
[12]; [20]
  pest or weed control at 125 g/ha: 70%
[12]; [21]
  pest or weed control at 31 g/ha: 40%
[13]; [20]
  pest or weed control at 125 g/ha: 100%
[13]; [21]
  pest or weed control at 31 g/ha: 50%
[14]; [20]
  pest or weed control at 125 g/ha: 20%
[14]; [21]
  pest or weed control at 31 g/ha: 0%
Corn (Zea mays); [20]
  plant injury at 125 g/ha: 40%
Corn (Zea mays); [21]
  plant injury at 31 g/ha: 0%
[15]; [20]
  pest or weed control at 125 g/ha: 50%
[15]; [21]
  pest or weed control at 31 g/ha: 0%
[16]; [20]
  pest or weed control at 125 g/ha: 0%
[16]; [21]
  pest or weed control at 31 g/ha: 0%
Kochia (Kochia scoparia) [17]; [20]
  pest or weed control at 125 g/ha: 40%
Kochia (Kochia scoparia) [17]; [21]
  pest or weed control at 31 g/ha: 0%
[18]; [20]
  pest or weed control at 125 g/ha: 0%
[18]; [21]
  pest or weed control at 31 g/ha: 0%
